Data: patent publication US20110217300A1, “Quinazolinone Compounds and Methods of Use Thereof” (priority 2007, published 2011)
Like-named read-outs stand apart in the source and are kept apart here.

What was measured:
PACA2 tumor xenografts [1] = assay: PACA2 tumor xenograft efficacy study (Example 106); format: in vivo, mice
Experimental: Six-week old female athymic nude mice (NCR nu/nu; Charles River Laboratory, Wilmington, Mass.) were acclimated to the animal housing facility for at least 1 week before the study. Efficacy studies were performed in athymic mice bearing PACA2 tumor xenografts to determine the effect of compound on tumor growth. Tumor cells (1×10^7 PACA2 cells/animal) were inoculated subcutaneously on day 0. Tumor dimensions were measured by a digital microcaliper, and tumor volumes were calculated as length×width^2/2. […] Results are expressed as mean tumor volume±SE. To assess differences in tumor size between groups, a Mann-Whitney non-parametric t test was performed and significance was assessed for p values <0.05. Tumor size was evaluated periodically during treatment at the indicated days post-inoculation. Results are represented as the mean of tumor volume in mm^3±SE of several tumors (n=10) in function of the treatment period. […] (See FIG. 1A).

A375 xenograft = assay: Xenograft model; format: in vivo, mice; settings: A375, Skin; procedures and dosages of Examples 106-108
SK-HEP-1 = assay: MTS cell viability assay; format: cell-based; settings: Homo sapiens, SK-HEP1, Liver adenocarcinoma
Experimental: Cell viability was determined by measuring the activity of dehydrogenase enzymes in metabolically active cells using a tetrazolium compound, MTS. The assay was performed as described in Promega Technical Bulletin No. 169 (CellTiter 96 Aqueous Non-Radioactive Cell Proliferation Assay). Two human cancer cell lines were assayed (see, Table 1). Cells were maintained at 37° C. and 5% CO2 in DMEM media (4.5 g/L glucose) supplemented with 10% heat-inactivated FBS, 10 mM L-glutamine, and 10 mM Hepes pH 7.5. Briefly, cells were seeded in 96-well plates as set forth in Table 1 and incubated for 16-24 hours. Candidate compounds were serially diluted in DMSO, further diluted in cell culture media, and then added to cells (final DMSO concentration of 0.33%). Cells were incubated in the presence of candidate compound for 72 hours. MTS stock solution (MTS 2 gm/L, PMS […] in PBS) was added to the cells (final concentration MTS […] and PMS 7.67 mg/L) and incubated for 4 hours. SDS was added to a final concentration of 1.4% and absorbance at 490 nm was measured within two hours using a plate reader. […] GI50 values were given in Table 2 for the compounds listed. The Compound Numbers in Table 2 correspond to the numbers listed parenthetically in the Example titles. Where multiple measurements were made by different technicians, both values are given.
Cell viability was determined for N-(3-amino-propyl)-3-chloro-N—[(R)-1-(7-chloro-4-oxo-3-phenylamino-3,4-dihydro-quinazolin-2-yl)-but-3-ynyl]-2-fluoro-benzamide (compound I of Table 2). The cell viability assay of Example 105 was used. GI50 was determined using a variety of cell lines. Cells were plated at 100-5000 cells per well. At least 2 replicates were performed. Where multiple measurements were made by different technicians, both values are given.

SK-OV-3 xenograft = assay: Xenograft model; format: in vivo, mice; settings: SK-OV-3, Ovary; procedures and dosages of Examples 106-108
PACA2 tumor xenografts [2] = assay: PACA2 tumor xenograft efficacy study (Example 107); format: in vivo, mice; settings: 3 mg/kg or 12.5 mg/kg intraperitoneally 3x weekly
Experimental: Six weeks old female athymic nude mice (NCR nu/nu) received from Charles River Laboratory, acclimated to the animal housing facility for one week before initiation of the study. Mice were housed in sterile cages of 4 each with autoclaved bedding, provided with autoclaved food and water ad libitum. Efficacy studies were performed in athymic mice bearing PACA2 tumor xenografts to determine the effect of compound on tumor growth. Tumor cells (1×10^7 PACA2 cells/animal) were inoculated subcutaneously on day 0. Tumor dimensions were measured three times weekly by a digital microcaliper, and tumor volumes were calculated as length×width^2/2. When tumors reached a volume of ˜300 mm^3, mice were randomized into groups and treated 3× weekly (Monday-Wednesday-Friday, followed by a 2-day dosing holiday) intraperitoneally. With either vehicle control or 3 mg/kg and 12.5 mg/kg compound formulated in DMA/PEG400/water (20:40:40). Results are expressed as mean tumor volume±SE. To assess differences in tumor size between groups, student's t test was performed and significance was assessed for p values <0.05. Tumor size was evaluated periodically during treatment at the indicated days post-inoculation. Results are represented as the mean of tumor volume in mm^3±SE of several tumors (n=10) in function of the treatment period. […] (See FIG. 1B).

NCI-H460 = assay: MTS cell viability assay; format: cell-based, human
Procedure, shortened: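 Seed 100-5000 cells/well, rest 16-24 h; add compound diluted from DMSO stocks (final DMSO 0.33%); incubate 72 h at 37° C.; add MTS/PMS 4 h; stop with 1.4% SDS; read […]. GI50 calculated.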

DU145 xenograft = assay: Xenograft model; format: in vivo, mice; settings: DU145, Prostate; procedures and dosages of Examples 106-108
MIA-PaCa2 xenograft = assay: Xenograft model; format: in vivo, mice; settings: MIA-PaCa2, Pancreas; procedures and dosages of Examples 106-108
Experimental: Six-week old female athymic nude mice (NCR nu/nu; Charles River Laboratory, Wilmington, Mass.) were acclimated to the animal housing facility for at least 1 week before the study. Efficacy studies were performed in athymic mice bearing PACA2 tumor xenografts to determine the effect of compound on tumor growth. Tumor cells (1×10^7 PACA2 cells/animal) were inoculated subcutaneously on day 0. Tumor dimensions were measured by a digital microcaliper, and tumor volumes were calculated as length×width^2/2. […] Results are expressed as mean tumor volume±SE. To assess differences in tumor size between groups, a Mann-Whitney non-parametric t test was performed and significance was assessed for p values <0.05. Tumor size was evaluated periodically during treatment at the indicated days post-inoculation. […]
Six weeks old female athymic nude mice (NCR nu/nu) received from Charles River Laboratory, acclimated to the animal housing facility for one week before initiation of the study. […] Tumor dimensions were measured three times weekly by a digital microcaliper, and tumor volumes were calculated as length×width^2/2. […] Results are expressed as mean tumor volume±SE. To assess differences in tumor size between groups, student's t test was performed and significance was assessed for p values <0.05. Tumor size was evaluated periodically during treatment at the indicated days post-inoculation. […]

## C#CC[C@H](c1nc2cc(Cl)ccc2c(=O)n1Nc1ccccc1)N(CCCN)C(=O)c1cccc(Cl)c1F [Compound 1, N-(3-Amino-propyl)-3-chloro-N—[(R)-1-(7-chloro-4-oxo-3-phenylamino-3,4-dihydro-quinazolin-2-yl)-but-3-ynyl]-2-fluoro-benzamide]
PACA2 tumor xenografts [1]; 6.25 or 12.5 mg/kg intraperitoneally 3x weekly for 4 weeks, tumors ~100 mm^3 at start, FIG. 1A
  tumor growth compared to the vehicle control group: Significant reductions in tumor growth
PACA2 tumor xenografts [1]; 6.25 or 12.5 mg/kg intraperitoneally 3x weekly, PACA2 xenograft mice
  tolerability of doses: well-tolerated
A375 xenograft
  Xenograft Outcome (approximate percent growth inhibition): small
SK-HEP-1
  GI50: 319 nM
SK-OV-3 xenograft
  Xenograft Outcome (approximate percent growth inhibition): ~50%
PACA2 tumor xenografts [2]; PACA2 xenograft mice
  tolerability of doses: well-tolerated
PACA2 tumor xenografts [2]; tumors ~300 mm^3 at start, FIG. 1B
  tumor growth compared to the vehicle control group: Significant reductions in tumor growth
NCI-H460; Homo sapiens, NCI-H460, 72 h, read-out: MTS NCI H460 GI50, NCI-H460 non small cell lung, 72 hours
  GI50: 360 nM
NCI-H460; Homo sapiens, NCI-H460, read-out: Average GI50, NCI-H460, Large cell lung carcinoma (Table 3)
  GI50: 1100 nM
NCI-H460; read-out: Average GI50, NCI-H460, Large cell lung carcinoma (Table 3), listed as I
  GI50: 1050 nM
DU145 xenograft
  Xenograft Outcome (approximate percent growth inhibition): ~75%
MIA-PaCa2 xenograft
  Xenograft Outcome (approximate percent growth inhibition): ~90%
